# Measurements taken from patent US20180273507A1, “CRYSTAL FORMS OF A M1 RECEPTOR POSITIVE ALLOSTERIC MODULATOR” (Merck Sharp & Dohme Corp., priority 2015, published 2018).
# Test: Base catalyzed hydrolysis forced degradation, HPLC monitored
# Conditions: basic conditions (0.1 N), 24 hours
# Method: The experiment was conducted on a sample stored at room/ambient temperature and another sample maintained at 60° C.
structure (smiles),measurement,setting,value
"Cc1ccc(Cc2cc3c(=O)n([C@H]4CCCC[C@@H]4O)cnc3c3ccccc23)cn1.O=C(O)/C=C/C(=O)O [3-[(1S,2S)-2-Hydroxycyclohexyl]-6-[(6-methyl-3-pyridinyl)methyl]benzo-[h]quinazolin-4(3H)-one (2E)-2-butenedioate]",degradation / loss under basic conditions,60° C.,1.4%
same,degradation / loss under basic conditions,ambient temperature,0.2%
